# Assay results published in patent publication US5789434A, “Derivatives of substituted 4-biarylbutyric acid as matrix metalloprotease inhibitors” (priority 1995, dated 1998).
# pIC50: −log10 of the molar value. Structures can show the parent of a compound that is named as a salt. Where two headings read alike, the source gives them in different places.
# Key:
# MMP-3 = molecular target: T1, MMP-3 (Homo sapiens, UniProt P08254); experiment: Primary Thiopeptilide MMP-3 Inhibition Assay; type: biochemical; conditions: for inhibition at 5 µM: read-out: MMP-3 Thiopep. % inhibition; for pIC50: 13 nM stromelysin, x (n) = average of n determinations
# T1 construct: Truncated Prostromelysin-257 was expressed in a soluble form in E.coli; made in house; host or cells: E. coli
# MMP-9 = molecular target: T2, MMP-9 (Homo sapiens, UniProt P14780); experiment: Thiopeptilide MMP-9 Inhibition Assay; type: biochemical; conditions: for inhibition at 5 µM: read-out: MMP-9: Thiopep. % inhibition
# T2 construct: from tissue; host or cells: human polymorphonuclear leukocytes (PMN) from whole blood (New York Blood Center), PMA-stimulated supernatant
# [1] = pH 6.5, read-out: MMP-3 Thiopep. IC50
# [2] = pH 6.5, x (n) = average of n determinations, read-out: MMP-9: Thiopep. IC50
# T1 sequence (P08254 100-274 limits assumed): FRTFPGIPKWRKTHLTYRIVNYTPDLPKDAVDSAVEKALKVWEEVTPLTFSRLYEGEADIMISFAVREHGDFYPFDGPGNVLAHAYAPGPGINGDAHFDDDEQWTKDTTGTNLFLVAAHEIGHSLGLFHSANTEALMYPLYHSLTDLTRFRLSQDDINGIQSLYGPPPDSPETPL
# T2 sequence (P14780 107-707 limits assumed): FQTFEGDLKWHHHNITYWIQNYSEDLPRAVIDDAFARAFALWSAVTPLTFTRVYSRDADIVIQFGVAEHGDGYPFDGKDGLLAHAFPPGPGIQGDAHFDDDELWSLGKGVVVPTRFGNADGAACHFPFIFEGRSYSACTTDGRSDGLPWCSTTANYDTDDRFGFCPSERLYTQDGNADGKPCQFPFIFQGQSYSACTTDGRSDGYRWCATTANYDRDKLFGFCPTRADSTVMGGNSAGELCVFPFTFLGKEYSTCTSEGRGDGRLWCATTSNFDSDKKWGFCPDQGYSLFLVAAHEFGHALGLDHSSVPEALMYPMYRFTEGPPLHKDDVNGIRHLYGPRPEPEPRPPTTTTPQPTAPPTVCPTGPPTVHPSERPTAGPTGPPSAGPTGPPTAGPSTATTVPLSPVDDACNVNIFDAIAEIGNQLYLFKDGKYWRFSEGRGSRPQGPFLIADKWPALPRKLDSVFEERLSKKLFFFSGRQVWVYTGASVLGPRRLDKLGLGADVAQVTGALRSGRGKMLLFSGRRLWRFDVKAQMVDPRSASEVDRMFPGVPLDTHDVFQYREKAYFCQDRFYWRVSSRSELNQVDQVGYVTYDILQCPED
inhibition at 5 µM (MMP-3; at 5 μM),inhibition at 5 µM (MMP-9),pIC50 (MMP-3; [1]),pIC50 (MMP-9; [2]),SMILES,also measured
24%,7%,–,–,"O=C(CC(CCCc1ccccc1)C(=O)O)c1ccc(-c2ccc(Cl)cc2Cl)cc1 (stereo not drawn) [Example 77, [1,1'-Biphenyl]-4-butanoic acid, 2',4'-dichloro-γ-oxo-α-(3-phenylpropyl)-]",–
–,–,6.71,6.47,"O=C(CC(CSc1cccc2cccnc12)C(=O)O)c1ccc(-c2ccc(Cl)cc2)cc1 (stereo not drawn) [Example 241, [1,1'-Biphenyl]-4-butanoic acid, 4'-chloro-γ-oxo-α-[(8-quinolinylthio)methyl]-]",–
28%,44%,–,–,"O=C(O)/C=C/C(=O)c1ccc(-c2ccc(Cl)cc2)cc1 [Example 29, 4-Oxo-4-(4'-chloro-4-biphenyl)but-2-enoic acid, reference compound]",–
–,–,6.12,5.74,"C=CCC(CC(=O)c1ccc(-c2ccc(Cl)cc2)cc1)C(=O)O (stereo not drawn) [Example 119, [1,1'-Biphenyl]-4-butanoic acid, 4'-chloro-γ-oxo-α-2-propenyl-]",–
35%,0%,–,–,"CC(C)CC(CC(=O)c1ccc(-c2ccccc2F)cc1)C(=O)O (stereo not drawn) [Example 17, [1,1'-Biphenyl]-4-butanoic acid, 2'-fluoro-α-(2-methylpropyl)-γ-oxo-]",–
–,30%,5.30,–,"O=C(CC(CCCc1ccccc1)P(=O)(O)O)c1ccc(-c2ccc(Br)cc2)cc1 (stereo not drawn) [Example 345, Phosphonic acid, [1-[2-(4'-bromo[1,1'-biphenyl]-4-yl)-2-oxoethyl]-4-phenylbutyl]-]",–
–,–,6.57,6.44,"O=C(CC(CCCCCc1ccccc1)C(=O)O)c1ccc(-c2ccc(Cl)cc2)cc1 (stereo not drawn) [Example 180, [1,1'-Biphenyl]-4-butanoic acid, 4'-chloro-γ-oxo-α-(5-phenylpentyl)-]",–
–,–,6.77,6.42,"COc1ccc(CCCC(CC(=O)c2ccc(-c3ccc(Cl)cc3)cc2)C(=O)O)cc1 (stereo not drawn) [Example 186, [1,1'-Biphenyl]-4-butanoic acid, 4'-chloro-α[3-(4-methoxyphenyl)propyl]-γ-oxo-]",–
62%,25%,–,–,"O=C(O)CCCC(=O)c1ccc(-c2ccc(Cl)cc2)cc1 [Example 333, [1,1'-Biphenyl]-4-pentanoic acid, 4'-chloro-δ-oxo-, reference compound]",–
–,0%,5.70,–,"CC(C)CC(CC(=O)c1ccc(-c2ccc(F)cc2)cc1)C(=O)O (stereo not drawn) [Example 15, [1,1'-Biphenyl]-4-butanoic acid, 4'-fluoro-α-(2-methylpropyl)-γ-oxo-]",–
–,–,6.60,6.19,"CSCCCC(CC(=O)c1ccc(-c2ccc(Cl)cc2)cc1)C(=O)O (stereo not drawn) [Example 266, [1,1'-Biphenyl]-4-butanoic acid, 4'-chloro-α-[3-(methylthio)propyl]-γ-oxo-]",–
0%,3%,–,–,"O=C(O)CCC(=O)c1ccc(-c2ccccc2F)cc1 [Example 9, [1,1'-Biphenyl]-4-butanoic acid, 2'-fluoro-γ-oxo-, reference compound]",–
–,–,7.08,6.61,"O=C(CC(CSc1ccccc1CO)C(=O)O)c1ccc(-c2ccc(Cl)cc2)cc1 (stereo not drawn) [Example 217, [1,1'-Biphenyl]-4-butanoic acid, 4'-chloro-α-[[[2-(hydroxymethyl)phenyl]thio]methyl]-γ-oxo-]",–
10%,1%,–,–,"C[C@H](C(=O)c1ccc(-c2ccc(Cl)cc2)cc1)[C@@H](C)C(=O)O (relative stereo) [Example 284, [1,1'-Biphenyl]-4-butanoic acid, 4'-chloro-α,β-dimethyl-γ-oxo-, (R*,S*)-]",–
17%,0%,–,–,"O=C(O)CCC(=O)c1ccc(-c2cccc(Cl)c2)cc1 [Example 12, [1,1'-Biphenyl]-4-butanoic acid, 3'-chloro-γ-oxo-, reference compound]",–
7%,17%,–,–,"O=C(CC(Cc1ccc(-c2ccccc2)cc1)C(=O)O)c1ccc(-c2ccc(Cl)cc2)cc1 (stereo not drawn) [Example 182, [1,1'-Biphenyl]-4-butanoic acid, α-([1,1'-biphenyl]-4-ylmethyl)-4'-chloro-γ-oxo-]",–
–,–,6.98,5.74,"N#Cc1ccc(-c2ccc(C(=O)CC(CCc3ccccc3)C(=O)O)cc2)cc1 (stereo not drawn) [Example 125, [1,1'-Biphenyl]-4-butanoic acid, 4'-cyano-γ-oxo-α-(2-phenylethyl)-]",–
–,–,5.92,5.82,"Nc1ccc(-c2ccc(C(=O)CC(CCCc3ccccc3)C(=O)O)cc2)cc1 (stereo not drawn) [Example 58, [1,1'-Biphenyl]-4-butanoic acid, 4'-amino-γ-oxo-α-(3-phenylpropyl)-]",–

inhibition at 5 µM (MMP-3; at 5 μM),inhibition at 5 µM (MMP-9),pIC50 (MMP-3; [1]),pIC50 (MMP-9; [2]),SMILES,also measured
–,–,6.26,6.48,"O=C(CC(CCCc1ccccc1)C(=O)O)c1ccc(-c2ccc(Cl)cc2)s1 (stereo not drawn) [Example 349, 2-Thiophenebutanoic acid, 5-(4-chlorophenyl)-γ-oxo-α-(3-phenylpropyl)-]",–
–,–,6.82,6.62,"O=C(C[C@H](CCCc1ccccc1)C(=O)O)c1ccc(-c2ccc(Br)cc2)cc1 [Example 178, [1,1'-Biphenyl]-4-butanoic acid, 4'-bromo-γ-oxo-α-(3-phenylpropyl)-, (S)-]",–
–,–,–,–,"C[Si](C)(C)CC(CC(=O)c1ccc(-c2ccc(Cl)cc2)cc1)C(=O)O (stereo not drawn) [Example 133, [1,1'-Biphenyl]-4-butanoic acid, 4'-chloro-γ-oxo-α-[(trimethylsilyl)methyl]-]","pIC50 (MMP-3; MMP-3 Thiopep. IC50, pH 6.5): 6.19; pIC50 (MMP-9): 5.00"
33%,21%,–,–,"CN(C)CCC(CC(=O)c1ccc(-c2ccc(Cl)cc2)cc1)C(=O)O (stereo not drawn) [Example 263, [1,1'-Biphenyl]-4-butanoic acid, 4'-chloro-α-[2-(dimethylamino)ethyl]-γ-oxo-, hydrochloride]",–
–,21%,5.60,–,"O=C(O)[C@@H]1CCCC[C@H]1C(=O)c1ccc(-c2ccc(Cl)cc2)cc1 (relative stereo) [Example 285, Cyclohexanecarboxylic acid, 2-[(4'-chloro[1,1'-biphenyl]-4-yl)carbonyl]-, trans-]",–
–,–,6.12,5.92,"Cc1ccc(-c2ccc(C(=O)CC(CC(C)C)C(=O)O)cc2)cc1 (stereo not drawn) [Example 21, [1,1'-Biphenyl]-4-butanoic acid, 4'-methyl-α-(2-methylpropyl)-γ-oxo-]",–
–,–,6.62,5.62,"CC(C)c1ccccc1SCC(CC(=O)c1ccc(-c2ccc(Cl)cc2)cc1)C(=O)O (stereo not drawn) [Example 221, [1,1'-Biphenyl]-4-butanoic acid, 4'-chloro-α-[[[2-(1-methylethyl)phenyl]thio]methyl]-γ-oxo-]",–
–,–,6.82,5.89,"COc1cccc(CCC(CC(=O)c2ccc(-c3ccc(Cl)cc3)cc2)C(=O)O)c1 (stereo not drawn) [Example 188, [1,1'-Biphenyl]-4-butanoic acid, 4'-chloro-α-[2-(3-methoxyphenyl)ethyl]-γ-oxo-]",–
7%,11%,–,–,"O=C(CC(CCCc1ccccc1)C(=O)O)c1ccc(-c2cc(Cl)cc(Cl)c2)cc1 (stereo not drawn) [Example 66, [1,1'-Biphenyl]-4-butanoic acid, 3',5=-dichloro-γ-oxo-α-(3-phenylpropyl)-]",–
15%,18%,–,–,"O=C(O)[C@H]1C2CCC(CC2)[C@@H]1C(=O)c1ccc(-c2ccc(Cl)cc2)cc1 (relative stereo) [Example 331, Bicyclo[2.2.2]octane-2-carboxylic acid, 3-[(4'-chloro[1,1'-biphenyl]-4-yl)carbonyl]-, trans-]",–
–,0%,–,–,"CC(C)CC1CC(c2ccc(-c3ccc(Cl)cc3)cc2)OC1=O (stereo not drawn) [Example 36, 2(3H)-Furanone, 5-(4'-chloro[1,1'-biphenyl]-4-yl)dihydro-3-(2-methylpropyl)-, reference compound]",MMP-3 Thiopep. % inhibition (MMP-3; at 5 μM): 0%
–,–,6.21,5.74,"O=C(CC(CSc1ccncc1)C(=O)O)c1ccc(-c2ccc(Cl)cc2)cc1 (stereo not drawn) [Example 222, [1,1'-Biphenyl]-4-butanoic acid, 4'-chloro-γ-oxo-α-[(4-pyridinylthio)methyl]-]",–
13%,0%,–,–,"CC(C)C[C@H](CC(=O)c1ccc(-c2ccc(Cl)cc2)cc1)C(=O)O [Example 3, [1,1'-Biphenyl]-4-butanoic acid, 4'-chloro-α-(2-methylpropyl)-γ-oxo-, (R)-]",–
–,–,7.02,6.52,"O=C(CC(CSc1ccccc1O)C(=O)O)c1ccc(-c2ccc(Cl)cc2)cc1 (stereo not drawn) [Example 240, [1,1'-Biphenyl]-4-butanoic acid, 4'-chloro-α-[[(2-hydroxyphenyl)thio]methyl]-γ-oxo-]",–
–,–,6.76,6.15,"CC(C)Oc1ccc(-c2ccc(C(=O)CC(CCCc3ccccc3)C(=O)O)cc2)cc1 (stereo not drawn) [Example 91, [1,1'-Biphenyl]-4-butanoic acid, 4'-(1-methylethoxy)-γ-oxo-α-(3-phenylpropyl)-]",–
–,–,5.62,5.15,"C[C@@H](C(=O)O)[C@@H](C)C(=O)c1ccc(-c2ccc(Cl)cc2)cc1 (relative stereo) [Example 283, [1,1'-Biphenyl]-4-butanoic acid, 4'-chloro-α,β-dimethyl-γ-oxo-, (R*,R*)-]",–
–,–,6.51,6.26,"O=C(O)CCc1ccc(SCC(CC(=O)c2ccc(-c3ccc(Cl)cc3)cc2)C(=O)O)cc1 (stereo not drawn) [Example 225, [1,1'-Biphenyl]-4-butanoic acid, α-[[[4-(2-carboxyethyl)phenyl]thio]methyl]-4'-chloro--γ-oxo-]",–
23%,9%,–,–,"O=Cc1ccccc1-c1ccc(C(=O)CC(CCCc2ccccc2)C(=O)O)cc1 (stereo not drawn) [Example 82, [1,1'-Biphenyl]-4-butanoic acid, 2'-formyl-γ-oxo-α-(3-phenylpropyl)-]",–
